Series [1] has as its system NHDFs. Description: In vitro scratch assay (simulated wound closure, cell migration). The series is classed as cell-based, human. Particulars: for time of wound closure of fibroblast compared to the control (growth media): after multiple different time intervals. As to the method:
(§1) In Vitro Scratch Assay Cell migration was assessed through making a scratch on confluent monolayers of NHDFs and NHEKs. A total of 15×10^4 cells per well were seeded on a 24 well plate and left overnight to reach confluency. The cell layer was then scraped using a 200 μl pipet tip and any cell debris was washed away with PBS. The samples were supplemented with different concentration of the compounds of interest in growth media and incubated at 37° C. and 5% CO2 for 20 hours. Images were taken every 4 hours using a phase contrast Nikon Eclipse Ti-E inverted microscope. Quantification of percent wound healing was performed by measuring the gap distance using the following formula, [formula] where Wn is the width of gap after every 4 hours and W0 is the initial width zero right after forming a scratch. Capillary Tube Formation

Series [2] has as its system NHEKs. The description is as above. In kind it is cell-based, human. Particulars: for NHEK gap closure / level of wound closure vs control: compounds 10 and 20 μg/ml, extract 50 μg/ml, over 20 h, control growth media; for time of wound closure of keratinocyte compared to the control (growth media): after multiple different time intervals. As to the method: as §1
The test system of series [3] is HUVECs. In words: Capillary tube formation on matrigel. The series is classed as cell-based, human. Particulars: 10 and 20 μg/ml. The method, then:
[formula] where Wn is the width of gap after every 4 hours and W0 is the initial width zero right after forming a scratch. Capillary Tube Formation Matrigel kept in a −20° C. freezer and thawed on ice overnight in a 4° C. refrigerator. A total of 50 μl of thawed matrigel was added to each well of pre-chilled 96-well plate and then incubated for 30 min at 37° C. to form a gel. Next, 100 μl of a HUVEC cell suspension (passage 2-6) in conditioned media (20000 cell/well) including the compounds of this invention was added to gel and incubated at 37° C. for 8 hours. The number of junctions in tubes was examined using a phase contrast inverted microscope (Invitrogen EVOS FL Auto Cell Imaging) and compared to the conditions with no compound (negative control).

For series [4], the system named is Human Umbilical Vein Endothelial Cells (HUVECs). In words: Cytotoxicity assay (MTS), cell viability/proliferation. In kind it is cell-based. Particulars: 24 h exposure, 10, 20, 50 and 100 μg/ml, vs control and DMSO vehicle control. As to the method: (§2) Human Umbilical Vein Endothelial cells (HUVEC), Adult Normal Human Epidermal Keratinocytes (NHEK), Normal Human Dermal fibroblast (NHDF) and related media for cell culture including endothelial basal and growth medium-2 (EBM-2, EGM-2), keratinocyte basal and growth medium-2 (KBM-2, KGM™-2), fibroblast basal and growth medium (FBM, FGM™) were purchased from Lonza. The cell types were selected due to their important physiologic role in early and late stages of wound healing. Cells were incubated at 37° C. and 5% CO2 throughout the examples. Phosphate-Buffered Saline (PBS), [3-(4,5-dimethylthiazol-2-yl)-5-(3-carboxymethoxyphenyl)-2-(4-sulfophenyl)-2H-tetrazolium (MTS) (Promega) colorimetric assay and growth factor reduced matrigel BD (Corning) were from Sigma-Aldrich.
(§3) In order to determine cell viability, HUVECs, NHDFs, and NHEKs were cultured in their growth media to reach 80% confluency. Cells were seeded at the density of 5×10^3 cell per 96 well plate in a total volume of 100 μl in each well. After seeding, the cells were incubated for 24 hours at 37° C. and 5% CO2 to allow for cell attachment. Media was changed and replaced with media supplemented with the desired concentration of the test compounds (10, 20, 50 and 100 μg/ml), being first dissolved at 10 mg/ml in DMSO and subsequently diluted in culture media. The vehicle control was culture medium supplemented with DMSO 0.5% (Macron Fine Chemicals), representing the highest final concentration of DMSO used to dissolve the natural compound. Following 24 hours of incubation, […] and incubated for 2 hours.

In series [5] the test system is Normal Human Dermal Fibroblasts (NHDFs). Described as above. The series is classed as cell-based. The following applies: 24 h exposure, 10, 20, 50 and 100 μg/ml, vs control and DMSO vehicle control. As to the method:
as §2, §3

Series [6] has as its system Normal Human Epidermal Keratinocytes (NHEKs). The series is described as above. Particulars: 24 h exposure, 10, 20, 50 and 100 μg/ml, vs control and DMSO vehicle control. The series is classed as cell-based. As to the method: as §2, §3

This is an account of results in US11439655B2, “Compounds for use in wound healing and angiogenesis” (UNIVERSITY OF SOUTH CAROLINA, priority 2017, dated 2022).

Each structure is given as a SMILES string.

With `O=C(/C=C/c1ccc(O)c(O)c1)O[C@@H]1C[C@](O)(C(=O)O)C[C@@H](O)[C@H]1O` [3-O-caffeoylquinic acid], the “NHDF gap closure / migration into the scratched gap vs control” value in series [1] (NHDFs, compounds 10 and 20 μg/ml, extract 50 μg/ml, over 20 h) is listed as “delayed effect on NHDF gap closure at 20 h post-seeding”. Also, the “time of wound closure of fibroblast compared to the control (growth media)” value in series [1] was “reduced time of wound closure”. Also, in series [2] (NHEKs, 10 μg/ml, 6 h), the “percentage of gap closed (simulated wound closure)” value is “approximately 40%”. Further, in series [2] (NHEKs), the “NHEK gap closure / level of wound closure vs control” value is reported as “highest level of wound closure”. In addition, in series [2] (NHEKs, higher concentration (20 μg/ml) vs 10 μg/ml), the “NHEK migration rate at higher concentration” value was “did not lead to a faster migration rate”. The “time of wound closure of keratinocyte compared to the control (growth media)” value in series [2] is listed as “reduced time of wound closure”. Moreover, the “capillary tube (tubule) formation, phase contrast microscopy” value in series [3] is “formation of tubules assembled by the elongation and joining of HUVECs”.
With `C[C@H]1O[C@@H](Oc2c(-c3cc(O)c(O)c(O)c3)oc3cc(O)cc(O)c3c2=O)[C@@H](O)[C@@H](O)[C@@H]1O` [myricetin-3-o-ß-rhamnoside], the “toxicity (cell viability, MTS assay)” value in series [4], in series [5] and in series [6] was “No toxicity was observed” each time. The NHDF gap closure result in series [1] (NHDFs, 10 μg/ml, all time points up to 20 h) is given as “accelerated gap closure at all time points”. Also, in series [1] (NHDFs, higher concentration (20 μg/ml), early time points), the “NHDF wound closure at higher concentration” value is reported as “negative effect on wound closure during early time points”. Also, the “time of wound closure of fibroblast compared to the control (growth media)” value in series [1] was “reduced time of wound closure”. Also, in series [2] (NHEKs), the “NHEK gap closure / level of wound closure vs control” value was “Neither myricetin-3-o-ß-rhamnoside nor total P. persica extract led to a significantly higher NHEK gap closure than the control”. In addition, the “time of wound closure of keratinocyte compared to the control (growth media)” value in series [2] is “reduced time of wound closure”. In addition, the “capillary tube (tubule) formation, phase contrast microscopy” value in series [3] was “formation of tubules assembled by the elongation and joining of HUVECs”. Also, in series [3] (8 h), the “number of junctions relative to control groups” value is “approximately 3 fold”.
